Series [1] in a line: Inhibition of OGD stimulated ROS accumulation in rat R28 cells assessed as fold decrease in ROS level at 1.25 uM preincubated for 24 hrs followed by OGD stimulation by DCFH-DA staining based confocal laser scanning microscopy. Format: functional.
Series [2] relates to BMDM. Briefly: Antiinflammatory activity against LPS-stimulated mouse BMDM assessed as reduction in NO production at 1.25 uM preincubated for 2 hrs followed by LPS addition for 22 hrs by Griess reagent based assay. Particulars: time 24.0 hrs. Format: functional, cell-based. (Nitrite, measured by Griess reagent, commonly stands in for NO production.)
The test system of series [3] is BMDM. As to the kind of experiment: Antiinflammatory activity against LPS-stimulated mouse BMDM assessed as reduction in IL6 expression at 1.25 uM preincubated for 2 hrs followed by LPS addition for 22 hrs by ELISA. To be noted: time 24.0 hrs. Format: functional, cell-based. Background: In an ELISA, binding on a coated surface is turned into a signal by an enzyme label.

Series [4] concerns R28. Briefly: (§1) Upregulation of Nrf2 protein expression in OGD stimulated rat R28 cells by Western blotting analysis. Format: functional.
Series [5] is described as follows: Cytotoxicity against rat R28 cells assessed as decrease in cellular ATP content incubated for 24 hrs by CellTiter-Lumi Plus cell viability assay. Format: toxicity, cell-based. Particulars: r28, 24 h.
Series [6] concerns R28. Briefly: Antioxidant activity in rat R28 cells assessed as protection against OGD induced cytotoxicity by measuring cellular ATP level preincubated under OGD condition for 8 hrs followed by reoxygenation for 4 hrs by CellTiter-Lumi Plus cell viability assay. Format: functional, cell-based. Particulars: dose 0.1-40 µM, time 12.0 hrs.
In series [7] the test system is BMDM. As to the kind of experiment: (§2) Antiinflammatory activity against LPS-stimulated mouse BMDM assessed as induction of polarization toward M2 phenotype at 1.25 uM preincubated for 2 hrs followed by LPS addition for 22 hrs by DAPI staining based confocal laser scanning microscopy. Particulars: time 24.0 hrs. Format: functional.
In series [8] the test system is BMDM. Briefly: (§3) Antiinflammatory activity against LPS-stimulated mouse BMDM assessed as fold decrease in TNFalpha expression at 1.25 uM preincubated for 2 hrs followed by LPS addition for 22 hrs by ELISA. Format: functional. To be noted: time 24.0 hrs.
Series [9] has as its system R28. As to the kind of experiment: (§4) Upregulation of NQO1 protein expression in OGD stimulated rat R28 cells by Western blotting analysis. Format: functional. A general note: In western blotting, separated proteins are transferred to a membrane and probed.
The subject of series [10] is R28. Briefly: Antioxidant activity in rat R28 cells assessed as protection against OGD induced cytotoxicity by measuring cellular ATP level at 0.1 to 40 uM preincubated under OGD condition for 8 hrs followed by reoxygenation for 4 hrs by CellTiter-Lumi Plus cell viability assay. Format: functional, cell-based. Particulars: dose 0.1-40 µM, time 12.0 hrs.
The next series deals with Macrophage. As to the kind of experiment: Antiinflammatory activity against LPS-stimulated mouse macrophages assessed as reduction in NO production at 0.1 to 40 uM preincubated for 2 hrs followed by LPS addition for 22 hrs by Griess reagent based assay. Format: functional, cell-based. Particulars: dose 0.1-40 µM, time 24.0 hrs.
The test system of series [11] is R28. As to the kind of experiment: (§5) Upregulation of HO-1 protein expression in OGD stimulated rat R28 cells by Western blotting analysis. Format: functional.
The target in series [12] is Kelch-like ECH-associated protein 1 (Homo sapiens) (UniProt Q14145). As to the kind of experiment: Binding affinity to Keap1 (unknown origin) incubated for 15 mins by MST assay. Particulars: filed as activator.
Series [13] is described as follows: as §1. Format: functional.
Series [14] can be described thus: as §2. Format: functional. To be noted: time 24 hrs.
Series [15] deals with R28. Briefly: Induction of Nrf2 translocation from cytosol to nucleus in OGD stimulated rat R28 cells. Format: functional, cell-based.
Series [16] is described as follows: as §3. Format: functional. Particulars: time 24 hrs.
Series [17] is described as follows: as §4. Format: functional.
Series [18] is described as follows: as §5. Format: functional.

Active and inactive are the calls of the source. The calls are words filed in the database; no cut-off is given here.

Sequence of Kelch-like ECH-associated protein 1 (Homo sapiens) (Q14145 whole entry): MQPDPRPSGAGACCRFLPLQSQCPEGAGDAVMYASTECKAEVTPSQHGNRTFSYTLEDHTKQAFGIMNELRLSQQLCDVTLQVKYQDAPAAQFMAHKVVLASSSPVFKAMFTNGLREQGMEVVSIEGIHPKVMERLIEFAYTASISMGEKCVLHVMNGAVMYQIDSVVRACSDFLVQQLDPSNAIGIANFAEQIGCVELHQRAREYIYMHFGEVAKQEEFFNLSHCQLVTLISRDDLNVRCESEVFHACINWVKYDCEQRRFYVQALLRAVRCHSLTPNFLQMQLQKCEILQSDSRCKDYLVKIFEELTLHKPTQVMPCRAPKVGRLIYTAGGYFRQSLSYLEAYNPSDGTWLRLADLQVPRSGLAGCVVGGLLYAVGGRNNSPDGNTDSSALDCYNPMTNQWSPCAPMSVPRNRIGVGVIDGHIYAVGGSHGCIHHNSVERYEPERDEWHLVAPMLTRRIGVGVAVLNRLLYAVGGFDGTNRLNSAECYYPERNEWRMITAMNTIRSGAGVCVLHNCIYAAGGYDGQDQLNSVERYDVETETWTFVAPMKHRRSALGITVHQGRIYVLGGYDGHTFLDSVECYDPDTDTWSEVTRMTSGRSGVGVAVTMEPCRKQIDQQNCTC

Consider `CN(CC(=O)O)CC(=O)Nc1nc2c(s1)C[C@]1(C)[C@H]3C[C@@H](O)[C@@H]4[C@@H]([C@]5(C)CC[C@H](C(C)(C)O)O5)CC[C@@]4(C)[C@]3(C)CC[C@H]1C2(C)C`, for which the “fold change (FC)” value in series [1] is 1.31. For the same compound, the result in the series with BMDM [2], in the series on BMDM [3], in the series on BMDM [7], in the series with R28 [10] and in the series with Macrophage was Active. Moreover, the result with R28 [4], in the series with BMDM [8], with R28 [9] and with R28 [11] was inactive. Besides, the Activity result in [5] was “Non-Toxic”; in the series on R28 [6], “Dose-Dependent Effect”; in [12], “Dose-Dependent Effect”.
With `CN(CC(=O)O)CC(=O)Nc1nc2c(s1)C[C@]1(C)[C@H]3C[C@@H](O)[C@@H]4[C@@H]([C@]5(C)CC[C@@H](C(C)(C)O)O5)CC[C@@]4(C)[C@]3(C)CC[C@H]1C2(C)C`, the figures for the “fold change (FC)” value in series [1] and in series [16] were 1.16 and 48.3, respectively. Besides, the result in the series with BMDM [2], in the series on BMDM [3], in the series with R28 [15], with R28 [10] and in the series on Macrophage was Active. The Activity in series [13] is 96.59%; in series [5] it was “Non-Toxic”; in the series on R28 [6], “Dose-Dependent Effect”; in series [14], 100%; in [17], 85.54%; in [18], 77.93%. The Activity result in series [12] was “Dose-Dependent Effect”.

The values are drawn from ChEMBL document CHEMBL6071140, “Ocotillol Derivatives Mitigate Retinal Ischemia-Reperfusion Injury by Regulating the Keap1/Nrf2/ARE Signaling Pathway” (J Med Chem, 2024).
